The text below walks through data of ChEMBL document CHEMBL4385594, “4(3H)-Quinazolinone derivatives: Promising antibacterial drug leads” (Eur J Med Chem, 2019).

Series [1] relates to Staphylococcus aureus. Briefly: Antibacterial activity against Staphylococcus aureus assessed as reduction in bacterial cell growth at 0.03 to 64 ug/ml incubated for 16 to 18 hrs by CLSI broth dilution method. Format: functional.
In a further series the test system is Escherichia coli. Briefly: Antibacterial activity against Escherichia coli assessed as diameter of zone inhibition at 100 ppm by disc diffusion method. It is filed as functional. The settings on record: read-out: DIZ. For orientation: In agar diffusion tests the substance spreads into inoculated agar from a disc or well.
Series [2] deals with Staphylococcus aureus. Nature of the series: Antibacterial activity against Staphylococcus aureus assessed as diameter of zone inhibition at 100 ppm by disc diffusion method. It is filed as functional. The settings on record: read-out: DIZ.
For a further series, the system named is MCF7. Briefly: Cytotoxicity against human MCF7 cells assessed as reduction in cell viability at 0.1 to 100 uM by MTT assay. Format: functional, cell-based. Background: Tetrazolium dyes change colour on reduction, which living cells bring about.
The next series has as its system Suillus luteus. Briefly: Antifungal activity against Suillus luteus assessed as reduction in fungal cell growth. Format: functional.
Series [3] relates to Staphylococcus aureus. Nature of the series: Antibacterial activity against methicillin-resistant Staphylococcus aureus assessed as reduction in bacterial cell growth at 0.5 to 512 ug/ml incubated for 24 hrs by CLSI broth microdilution method. Format: functional. For orientation: In broth dilution the organism is exposed to a series of concentrations in liquid medium.
Series [4] deals with Acinetobacter baumannii. Briefly: Antibacterial activity against multidrug-resistant Acinetobacter baumannii assessed as reduction in bacterial cell growth incubated for 24 hrs by broth dilution method. It is filed as functional.
Series [5] is described as follows: Cytotoxicity against human HepG2 cells assessed as reduction in cell viability at 0 to 50 uM incubated for 48 hrs by MTT assay. Format: cell-based. The settings on record: read-out: LD50.
The subject of series [6] is Acinetobacter baumannii. Nature of the series: Antibacterial activity against Acinetobacter baumannii 1646 infected in mouse model of peritonitis assessed as increase in survival rate at 2 mg/kg, ip dosed at 1 hr post infection (reference value: 66%). Format: functional. The settings on record: Acinetobacter baumannii, 1646, ip.

SMILES strings stand for the structures. In brackets after ≈: the same amount, converted by molar mass.

Take `N#Cc1ccc(/C=C/c2nc3cccc(Cl)c3c(=O)n2-c2cccc(C(=O)O)c2)cc1`: in the series on Staphylococcus aureus [1], the minimum inhibitory concentration (MIC) (as a rule, the lowest concentration that inhibits growth of the organism) amounted to 8 µg/mL (≈ 18.7 µM).

Regarding `COc1ccc(Cn2cc(COc3cccc(-n4c(/C=C/c5ccc(C#N)cc5)nc5ccccc5c4=O)c3)nn2)cc1`, in the series on Staphylococcus aureus [1], the MIC was 0.5 µg/mL (≈ 0.882 µM).

`Cc1nc2ccc(Br)cc2c(=O)n1/N=C/c1cc(Cl)cc(Cl)c1O`: the zone of inhibition at 100 ppm in the series on Escherichia coli was determined as 16 mm; with Staphylococcus aureus [2], 14 mm.

As to `Cc1nc2ccc(I)cc2c(=O)n1/N=C/c1cc(Br)cc(Br)c1O`, the figures for the zone of inhibition at 100 ppm in the series with Escherichia coli and in the series on Staphylococcus aureus [2] were 16 mm and 14 mm, respectively.

Consider `COc1ccc2ncn(CC(c3cc4ccccc4o3)[n+]3ccn(C)c3)c(=O)c2c1` (stereo not given), for which, in the series on MCF7, the half-maximal inhibitory concentration (IC50) (as a rule, the midpoint of a concentration-inhibition curve) is 0.57 to 1 µM.

For the compound `Cn1cc[n+](C(Cn2cnc3ccccc3c2=O)c2cc3cc(Br)ccc3o2)c1` (stereo not given), the IC50 in the series on MCF7 fell in the range of 0.57 to 1 µM.

In the case of `CCCCNC(=O)Oc1ccc(-n2c(/C=C/c3ccc(Cl)cc3)nc3cc(Cl)ccc3c2=O)cc1`, the minimal inhibitory concentration (MIC) with Suillus luteus came to 125 µg/mL (≈ 246 µM).

In the case of `Cn1cc[n+](C(Cn2cnc3ccc(Cl)cc3c2=O)c2cc3cc(Br)ccc3o2)c1` (stereo not given), the IC50 in the series with MCF7 lay within 0.57 to 1 µM.

Take `COc1cc(/C=N/n2c(C)nc3ccc(I)cc3c2=O)cc(I)c1O`: the zone of inhibition at 100 ppm with Escherichia coli amounted to 16 mm; in the series with Staphylococcus aureus [2] it was 14 mm.

Turning to `COc1cc(/C=N/n2c(C)nc3ccc(Br)cc3c2=O)cc(Br)c1O`, the values for the zone of inhibition at 100 ppm in the series on Escherichia coli and in the series with Staphylococcus aureus [2] were 16 mm and 14 mm, respectively.

For `C=CCOc1cccc(-n2c(/C=C/c3ccc(C#N)cc3)nc3ccccc3c2=O)c1`, the minimum inhibitory concentration (MIC) with Staphylococcus aureus [1] turned out to be 0.125 µg/mL (≈ 0.308 µM).

In the case of `O=c1c2ccc(F)cc2ncn1CC(O)Cn1cncn1` (stereo not given), the MIC in the series with Staphylococcus aureus [3] stood at 8 µg/mL (≈ 27.7 µM).

As for `COc1ccc(-n2cc(COc3cccc(-n4c(/C=C/c5ccc(C#N)cc5)nc5ccccc5c4=O)c3)nn2)cc1`, the minimum inhibitory concentration (MIC) in the series with Staphylococcus aureus [1] is 4 µg/mL (≈ 7.24 µM).

`CNc1nc(NCc2ccccc2)nc2cc(C)ccc12`: in the series on Acinetobacter baumannii [4], the MIC came to 0.5 µM (≈ 0.139 µg/mL). Moreover, in series [5], the CC50 at 48 h was 23 µM. In the series with Acinetobacter baumannii [6], the survival at 2 mg/kg is 90%.

With `Cn1cc[n+](C(Cn2cnc3ccccc3c2=O)c2cc3ccccc3o2)c1` (stereo not given), the 50% inhibitory concentration (IC50) in the series on MCF7 was in the range of 0.57 to 1 µM.

Turning to `N#Cc1ccc(/C=C/c2nc3ccccc3c(=O)n2-c2cccc(C(=O)N3CCCCC3)c2)cc1`, the MIC with Staphylococcus aureus [1] came out at 4 µg/mL (≈ 8.69 µM).

In the case of `Cc1nc2ccc(I)cc2c(=O)n1/N=C/c1cc(Cl)cc(Cl)c1O`, the zone of inhibition at 100 ppm with Escherichia coli amounted to 16 mm; in the series on Staphylococcus aureus [2], 14 mm.

Turning to `N#Cc1ccc(/C=C/c2nc3ccccc3c(=O)n2-c2cccc(OCc3cn(-c4ccc(C(F)(F)F)cc4)nn3)c2)cc1`, the MIC with Staphylococcus aureus [1] was 4 µg/mL (≈ 6.77 µM).

Take `N#Cc1ccc(/C=C/c2nc3ccccc3c(=O)n2-c2cccc(OCc3cn(-c4ccc(Cl)cc4)nn3)c2)cc1`: the MIC in the series on Staphylococcus aureus [1] was 0.5 µg/mL (≈ 0.898 µM).

As for `C#CCOc1cccc(-n2c(/C=C/c3ccc(Cl)cc3)nc3ccccc3c2=O)c1`, the MIC with Staphylococcus aureus [1] was determined as 32 µg/mL (≈ 77.5 µM).

On to `N#Cc1ccc(/C=C/c2nc3ccccc3c(=O)n2-c2cccc(OCc3cn(Cc4ccc([N+](=O)[O-])cc4)nn3)c2)cc1`, for which, in the series on Staphylococcus aureus [1], the MIC stood at 2 µg/mL (≈ 3.44 µM).

For `C#Cc1cccc(-n2c(/C=C/c3ccc(C#N)cc3)nc3ccccc3c2=O)c1`, the MIC in the series with Staphylococcus aureus [1] came to 0.5 µg/mL (≈ 1.34 µM).

For `CNc1nc(NCc2ccccc2)nc2ccc(C)cc12`, the MIC with Acinetobacter baumannii [4] is 0.5 µM (≈ 0.139 µg/mL). The CC50 at 48 h in series [5] turned out to be 23 µM. Moreover, the survival at 2 mg/kg in the series with Acinetobacter baumannii [6] was determined as 90%.

For `Cc1cccc2c(=O)n(-c3cccc(O)c3)c(/C=C/c3ccc(C#N)cc3)nc12`, the minimal inhibitory concentration (MIC) in the series with Staphylococcus aureus [1] was determined as 0.5 µg/mL (≈ 1.32 µM).

Turning to `Cc1nc2ccc(Br)cc2c(=O)n1/N=C/c1cc(Br)cc(Br)c1O`, the zone of inhibition at 100 ppm is 27 mm with Escherichia coli and 24 mm in the series on Staphylococcus aureus [2].

In the case of `Cc1nc2ccc(Br)cc2c(=O)n1/N=C/c1cc(I)cc(I)c1O`, the zone of inhibition at 100 ppm stood at 16 mm in the series on Escherichia coli and 14 mm in the series with Staphylococcus aureus [2].

`CC(C)NC(=O)c1cccc(-n2c(/C=C/c3ccc(C#N)cc3)nc3ccccc3c2=O)c1`: the minimal inhibitory concentration (MIC) in the series with Staphylococcus aureus [1] stood at 0.25 µg/mL (≈ 0.575 µM).

In the case of `N#Cc1ccc(/C=C/c2nc3ccccc3c(=O)n2-c2cccc(OCc3cn(-c4cccc(F)c4)nn3)c2)cc1`, the minimum inhibitory concentration (MIC) in the series on Staphylococcus aureus [1] is 0.5 µg/mL (≈ 0.925 µM).

Turning to `N#Cc1ccc(/C=C/c2nc3ccccc3c(=O)n2-c2ccc(OCc3cn(Cc4ccc(Br)cc4)nn3)cc2)cc1`, the MIC in the series on Staphylococcus aureus [1] is above 64 µg/mL.
